Results on five compounds are retold here after patent US20240116985A1, “STAPLED PEPTIDES AND METHODS THEREOF” (priority 2020, published 2024).

For series [1], the target named is T1, full-length B-Catenin (Uniprot ID P35222) (Homo sapiens, UniProt P35222).
T1 construct: 65 nM full-length B-Catenin (Uniprot ID P35222)
T1 sequence (P35222 1-781): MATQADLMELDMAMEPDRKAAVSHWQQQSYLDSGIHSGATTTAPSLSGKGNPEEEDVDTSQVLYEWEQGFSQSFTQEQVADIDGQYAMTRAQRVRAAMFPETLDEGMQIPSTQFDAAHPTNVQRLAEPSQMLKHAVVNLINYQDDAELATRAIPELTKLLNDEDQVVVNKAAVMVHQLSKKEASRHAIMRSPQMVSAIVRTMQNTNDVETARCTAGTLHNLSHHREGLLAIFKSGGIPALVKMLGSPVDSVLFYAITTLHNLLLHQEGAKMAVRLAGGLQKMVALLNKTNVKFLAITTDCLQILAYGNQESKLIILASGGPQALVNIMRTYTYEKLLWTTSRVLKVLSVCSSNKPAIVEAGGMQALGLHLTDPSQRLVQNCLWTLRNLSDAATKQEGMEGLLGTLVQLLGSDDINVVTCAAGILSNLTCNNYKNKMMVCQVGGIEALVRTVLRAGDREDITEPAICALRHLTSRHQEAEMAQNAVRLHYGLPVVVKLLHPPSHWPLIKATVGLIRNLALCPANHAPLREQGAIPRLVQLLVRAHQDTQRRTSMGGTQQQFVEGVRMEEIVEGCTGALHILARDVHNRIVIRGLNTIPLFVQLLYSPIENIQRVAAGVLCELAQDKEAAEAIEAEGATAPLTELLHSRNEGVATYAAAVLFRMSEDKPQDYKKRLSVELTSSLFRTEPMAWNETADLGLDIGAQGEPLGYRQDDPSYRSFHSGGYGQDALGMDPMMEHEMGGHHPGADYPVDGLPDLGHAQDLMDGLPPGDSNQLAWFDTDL
The experiment in a line: Alphascreen binding assay (beta-catenin / biotin-TCF4 10-53). The procedure, abridged: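 Final concentrations: 65 nM full-length human β-catenin plus 10 nM biotin-TCF4(10-53) peptide, test peptide 3-fold from 10 uM to 5 nM, preincubated 15 min at 20 °C in Tris pH 8.0/250 mM NaCl buffer. Nickel-chelate AlphaScreen donor/acceptor beads then added for 60 min in the dark; duplicate reads fitted to 1:1 binding model with Hill slope.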
In general terms: Bead proximity is the source of the signal in Alpha formats.

A short description of series [2]: CHI Log D procedure. It is filed as physicochemical. Conditions: for chromatographic logD: pH 7.4, CHI Log D; for CHI Log D: pH 7.4.
Series [3] is described as follows: Solubility in PBS. Type of series: physicochemical. The method in brief:
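Solubility is derived from HPLC peak areas: the ratio of the PBS supernatant peak to a 50 μM DMSO peptide peak, times 50 uM.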

The target in series [4] is T2, full-length beta-Catenin (Uniprot ID P35222) (Homo sapiens, UniProt P35222).
T2 construct: 10 nM full-length beta-Catenin (Uniprot ID P35222)
T2 sequence (P35222 1-781): T1 sequence (P35222 1-781)
Nature of the series: Fluorescence polarization IC50 (beta-catenin / 5FAM-TCF4 10-53 competition). Particulars: Table E2-1; read-out: beta-Catenin FP IC50. It is filed as binding. In general terms: Polarisation of emitted light reports the rotation of a fluorescent probe.

pEC50, pIC50: −log10 of the molar value. In brackets after ≈: the same amount, converted by molar mass.

In general, pEC50 refers to −log10 of the EC50, conventionally taken in molar units. For orientation: chromatographic logD means lipophilicity estimated from chromatographic retention. High values mean a more lipophilic compound, low ones a more hydrophilic compound. One may read the solubility as how much of the substance goes into solution per volume. Usually Solubility stands for the dissolved amount per volume that the medium holds. A higher Solubility goes with much dissolved substance. What is called pIC50 is the negative decadic logarithm of the IC50, by convention in mol/L.

Compound `CC(=O)N[C@@H](Cc1ccccc1)C(=O)N[C@@H](CC(=O)O)C(=O)N[C@@H](C)C(=O)N[C@]1(C)CCCCCCC=CCOC(=O)N2CC[C@@](C(=O)N[C@@H](Cc3ccccc3)C(=O)N[C@@H](Cc3c[nH]c4ccccc34)C(=O)N[C@@H](CCC(N)=O)C(N)=O)(C2)NC(=O)[C@H](C(C)C)NC(=O)[C@H](CC2CCCC2)NC(=O)[C@H](C)NC(=O)[C@H](C)NC(=O)[C@H](CC(=O)O)NC(=O)[C@H](CC(=O)O)NC1=O` (single isomer, unassigned) [I-95, Ac-Phe-Asp-Ala-R8-Asp-Asp-Ala-Ala-CypA-Val-PyrS-Phe-Trp-Gln-NH2] showed a pEC50 in series [1] of 5.06. In series [2], this compound showed a chromatographic logD of 1.31. For the same compound, the concentration in solution in series [3] (Solubility (uM)) (solubility at 15 min) came to 33 µM (≈ 59.9 µg/mL).

In series [1], `CCN(CC(=O)O)C[C@@H]1NC(=O)[C@H](CC(=O)O)NC(=O)C2(CCCC=CCCCCCC[C@@](C)(C(=O)N[C@@H](Cc3ccccc3)C(=O)N[C@@H](Cc3c[nH]c4ccccc34)C(=O)N[C@@H](CCC(N)=O)C(N)=O)NC(=O)[C@H](C(C)C)NC(=O)[C@H](Cc3ccccc3)NC(=O)[C@H](C)NC(=O)[C@H](C)NC1=O)CCCC=CC[C@]1(CCCN1C(C)=O)C(=O)N[C@@H](CC(=O)O)C(=O)N[C@@H](C)C(=O)N2` (stereo partly drawn) [I-172, Ac-PL3-Asp-Ala-B5-Asp-EtGA-Ala-Ala-Phe-Val-S8-Phe-Trp-Gln-NH2] had a pEC50 of 6.49. For the same compound, the “CHI Log D” value in series [2] came out at 2.173. Moreover, the “Solubility” value in series [3] came out at 50 µM (≈ 91.9 µg/mL).

Turning to `CC(=O)N[C@@H](Cc1ccccc1)C(=O)N[C@@H](CC(=O)O)C(=O)N[C@@H](C)C(=O)N[C@]1(C)CCCCCCC=CCOC(=O)N2CC[C@@](C(=O)N[C@@H](Cc3c(F)c(F)c(F)c(F)c3F)C(=O)N[C@@H](Cc3c[nH]c4ccccc34)C(=O)N[C@@H](CCC(N)=O)C(N)=O)(C2)NC(=O)[C@H](C(C)C)NC(=O)[C@H](Cc2ccccc2)NC(=O)[C@H](C)NC(=O)[C@H](C)NC(=O)[C@H](CC(=O)O)NC(=O)[C@H](CC(=O)O)NC1=O` [I-227, Ac-Phe-Asp-Ala-R8-Asp-Asp-Ala-Ala-Phe-Val-PyrS-Pff-Trp-Gln-NH2], in series [1], the pEC50 is 5.23. For the same compound, the “CHI Log D” value in series [2] is given as 1.534. Moreover, the “Solubility” value in series [3] is 38 µM (≈ 72.7 µg/mL).

In turn, `CC(=O)N[C@@H](Cc1ccccc1)C(=O)N[C@@H](CC(=O)O)C(=O)N[C@@H](C)C(=O)N[C@]1(C)CCCCCCC=CCOC(=O)N2CC[C@@](C(=O)N[C@@H](Cc3c(F)c(F)c(F)c(F)c3F)C(=O)N[C@@H](Cc3c[nH]c4ccccc34)C(=O)N[C@@H](CCC(N)=O)C(N)=O)(C2)NC(=O)[C@H](C(C)C)NC(=O)[C@H](Cc2ccccc2)NC(=O)[C@H](C)NC(=O)[C@H](C)NC(=O)[C@H](CC(=O)O)NC(=O)[C@H](CC(=O)O)NC1=O` [I-228, Ac-Phe-Asp-Ala-R8-Asp-Asp-Ala-Ala-Phe-Val-PyrS-Pff-Trp-Gln-NH2] had a pEC50 in series [1] of 5.23. Further, in series [2], the “CHI Log D” value is reported as 1.534. For the same compound, in series [3], the “Solubility” value is 38 µM (≈ 72.7 µg/mL).

In series [1], `CC(=O)N1CCC[C@]12CC=CCCCC1(CCCC=CCCCCCC[C@@](C)(C(=O)N[C@@H](Cc3ccccc3)C(=O)N[C@@H](Cc3c[nH]c4ccccc34)C(=O)N[C@@H](CCC(N)=O)C(N)=O)NC(=O)[C@H](C(C)C)NC(=O)[C@H](Cc3cccs3)NC(=O)[C@H](C)NC(=O)[C@H](C)NC(=O)[C@H](CC(=O)O)NC(=O)[C@H](CC(=O)O)NC1=O)NC(=O)[C@H](C)NC(=O)[C@H](CC(=O)O)NC2=O` (stereo partly drawn) [I-325, Ac-PL3-Asp-Ala-B5-Asp-Asp-Ala-Ala-2Thi-Val-S8-Phe-Trp-Gln-NH2] gave a pEC50 of 7.28. The compound further yielded a chromatographic logD in series [2] of 1.98. For the same compound, the pIC50 in series [4] is 5.88.
